Patent publication US20250361230A1, “LATS Inhibitors and Uses Thereof” (The USA, as Represented by the Secretary, Dept. of Heath …, priority 2022, published 2025)

Target: AKT (Homo sapiens, UniProt P31749)
Experiment: RBC HotSpot kinase assay (33P-ATP, P81 filter-binding), AKT
Assay type: biochemical
Details: biochemical kinase inhibition; read-out: AKT IC50
Procedure, shortened: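 Kinase in Hepes pH 7.5 buffer with Mg2+, EGTA, Brij35, BSA, vanadate, DTT and 1% DMSO, plus required cofactors and substrate, was preincubated 20 min at room temperature with compound. Reaction was started with 33P-ATP and run 2 h, then detected by P81 filter binding. IC50 (nM) came from 10-point singlet curves.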

AKT, sequence (P31749 whole entry): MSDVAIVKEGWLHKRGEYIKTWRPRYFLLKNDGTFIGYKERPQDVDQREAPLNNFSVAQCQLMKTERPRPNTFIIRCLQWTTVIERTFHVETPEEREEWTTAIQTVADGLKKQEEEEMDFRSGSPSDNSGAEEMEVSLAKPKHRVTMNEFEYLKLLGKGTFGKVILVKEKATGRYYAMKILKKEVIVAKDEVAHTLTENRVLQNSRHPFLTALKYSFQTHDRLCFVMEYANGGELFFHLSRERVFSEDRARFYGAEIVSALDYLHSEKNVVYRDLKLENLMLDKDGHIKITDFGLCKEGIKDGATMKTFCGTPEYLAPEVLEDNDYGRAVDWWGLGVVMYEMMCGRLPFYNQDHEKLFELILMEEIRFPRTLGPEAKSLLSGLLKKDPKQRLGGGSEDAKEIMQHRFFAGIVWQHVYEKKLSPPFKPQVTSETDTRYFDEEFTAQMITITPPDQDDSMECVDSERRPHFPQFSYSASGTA

IC50: 12.1 nM
SMILES: Cc1cc(-c2ccnc3[nH]cc(C#N)c23)ccc1[C@@]1(O)[C@H](C)CN(C2CCS(=O)(=O)CC2)C[C@@H]1C [Compound 2003, 4-(4-((3S,4s,5R)-1-(1,1-dioxidotetrahydro-2H-thiopyran-4-yl)-4-hydroxy-3,5-dimethylpiperidin-4-yl)-3-methylphenyl)-1H-pyrrolo[2,3-b]pyridine-3-carbonitrile]
